Measured values taken from patent US6737383B1, “Herbicidal oxadiazolidines” (priority 1999, dated 2004).

Columns and labels:
Alexandergrass = experiment: Test D Alexandergrass; format: in vivo, Brachiaria plantaginea; settings: Preemergence, 0 to 100 scale, 0 no injury, 100 complete control
Source text: (§1) Seeds, tubers, or plant parts of Alexandergrass (Brachiaria plantaginea), bermuda-grass (Cynodon dactylon), common pursiane (Portulaca oleracea), common ragweed (Ambrosia elatior), common groundsel (Senecio vulgaris), dallisgrass (Paspalum dilatatum), goosegrass (Eleusine indica), guineagrass (Panicum maximum), itchgrass (Rottboellia exaltata), Johnson grass (Sorghum halepense), large crabgrass (Digitaria sanguinalis), pitted morningglory (Ipomoea lacunosa), purple nutsedge (Cyperus rotundus), sandbur (Cenchrus echinatus), sourgrass (Trichachne insularis), Spanishneedles (Bidens bipinnata), surinam grass (Brachiaria decumbens) and tall mallow (Malva sylvestris) were planted into greenhouse pots of flats containing greenhouse planting medium. Plant species were grown in separate pots or individual compartments. Preemergence applications were made within one day of planting the seed or plant part.
(§2) Test chemicals were formulated in a non-phytotoxic solvent mixture which included a surfactant and applied preemergence to the surface of the pot containing seeds in a sandy loam soil. Untreated control pots and treated pots were placed in the greenhouse for growth and visually evaluated for injury 14 to 21 days after herbicide application. Plant response ratings, summarized in Table C, are based on a 0 to 100 scale where 0 is no injury and 100 is complete control. A dash (−) response means no test result.

common pursiane = experiment: Test D common purslane; format: in vivo, Portulaca oleracea; settings: Preemergence, 0 to 100 scale, 0 no injury, 100 complete control
In short: (§3)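 Seeds were sown in greenhouse pots, one species per pot or compartment. Compounds were in a non-phytotoxic solvent mixture with surfactant; preemergence applications went on the sandy loam surface within one day of planting. Injury was rated visually after 14 to 21 days, 0 (none) to 100 (complete control).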

common groundsel = experiment: Test D common groundsel; format: in vivo, Senecio vulgaris; settings: Preemergence, 0 to 100 scale, 0 no injury, 100 complete control
In short: as §3

dallisgrass = experiment: Test D dallisgrass; format: in vivo, Paspalum dilatatum; settings: Preemergence, 0 to 100 scale, 0 no injury, 100 complete control
In short: as §3

goosegrass = experiment: Test D goosegrass; format: in vivo, Eleusine indica; settings: Preemergence, 0 to 100 scale, 0 no injury, 100 complete control
In short: as §3

guineagrass = experiment: Test D guineagrass; format: in vivo, Panicum maximum; settings: Preemergence, 0 to 100 scale, 0 no injury, 100 complete control
In short: as §3

itchgrass = experiment: Test D itchgrass; format: in vivo, Rottboellia exaltata; settings: Preemergence, 0 to 100 scale, 0 no injury, 100 complete control
Source text: as §1, §2

Johnson grass = experiment: Test D Johnson grass; format: in vivo, Sorghum halepense; settings: Preemergence, 0 to 100 scale, 0 no injury, 100 complete control
In short: as §3

large crabgrass = experiment: Test D large crabgrass; format: in vivo, Digitaria sanguinalis; settings: Preemergence, 0 to 100 scale, 0 no injury, 100 complete control
In short: as §3

pitted morningglory = experiment: Test D pitted morningglory; format: in vivo, Ipomoea lacunosa; settings: Preemergence, 0 to 100 scale, 0 no injury, 100 complete control
In short: as §3

purple nutsedge = experiment: Test D purple nutsedge; format: in vivo, Cyperus rotundus; settings: Preemergence, 0 to 100 scale, 0 no injury, 100 complete control
Source text: as §1, §2

sandbur = experiment: Test D sandbur; format: in vivo, Cenchrus echinatus; settings: Preemergence, 0 to 100 scale, 0 no injury, 100 complete control
Source text: as §1, §2

Spanishneedles = experiment: Test D Spanishneedles; format: in vivo, Bidens bipinnata; settings: Preemergence, 0 to 100 scale, 0 no injury, 100 complete control
In short: as §3

surinam grass = experiment: Test D surinam grass; format: in vivo, Brachiaria decumbens; settings: Preemergence, 0 to 100 scale, 0 no injury, 100 complete control
In short: as §3

tall mallow = experiment: Test D tall mallow; format: in vivo, Malva sylvestris; settings: Preemergence, 0 to 100 scale, 0 no injury, 100 complete control
In short: as §3

Green foxtail = experiment: Test D green foxtail; format: in vivo
Source text: as §1, §2

[1] = Rate 64 g/ha, Preemergence; 0 to 100 scale, 0 no injury, 100 complete control
[2] = Rate 125 g/ha, Preemergence; 0 to 100 scale, 0 no injury, 100 complete control

## CCCn1c(=O)on(C(=O)N(c2ccc(F)cc2F)C(C)C)c1=O [Compound 130]
Alexandergrass; Rate 64 g/ha
  Plant response rating, Alexandergrass: 98
Common pursiane; Rate 64 g/ha
  Plant response rating, C. purslane: 0
Common groundsel; Rate 64 g/ha
  Plant response rating, Com. groundsel: 0
dallisgrass; Rate 64 g/ha
  Plant response rating, Dallisgrass: 100
goosegrass; Rate 64 g/ha
  Plant response rating, Goosegrass: 100
guineagrass; Rate 64 g/ha
  Plant response rating, Guineagrass: 100
itchgrass; Rate 64 g/ha
  Plant response rating, Itchgrass: 80
Johnson grass; Rate 64 g/ha
  Plant response rating Johnsongrass: 65
Large crabgrass; Rate 64 g/ha
  Plant response rating Large crabgrass: 100
Pitted morningglory; Rate 64 g/ha
  Plant response rating, P. morninglory: 65
Purple nutsedge; Rate 64 g/ha
  Purple nutsedge plant response rating: 0
sandbur; Rate 64 g/ha
  Sandbur plant response rating: 100
Spanishneedles; Rate 64 g/ha
  Spanishneedles plant response rating: 60
Surinam grass; Rate 64 g/ha
  Surinam grass plant response rating: 80
Tall mallow; Rate 64 g/ha
  Tall Mallow plant response rating: 85
Green foxtail; [1]
  Green foxtail plant response rating: 100
  Plant response rating, Green foxtail: 100

## Cc1cccc(C)c1-n1c(=O)on(C(=O)N(c2ccc(F)cc2)C(C)C)c1=O [Compound 18]
Alexandergrass; Rate 16 g/ha
  Plant response rating, Alexandergrass: 0
Alexandergrass; Rate 32 g/ha
  Plant response rating, Alexandergrass: 0
Alexandergrass; Rate 64 g/ha
  Plant response rating, Alexandergrass: 0
Alexandergrass; Rate 125 g/ha
  Plant response rating, Alexandergrass: 30
Common pursiane; Rate 16 g/ha
  Plant response rating, C. purslane: 0
Common pursiane; Rate 32 g/ha
  Plant response rating, C. purslane: 0
Common pursiane; Rate 64 g/ha
  Plant response rating, C. purslane: 0
Common pursiane; Rate 125 g/ha
  Plant response rating, C. purslane: 0
Common groundsel; Rate 16 g/ha
  Plant response rating, Com. groundsel: 0
Common groundsel; Rate 32 g/ha
  Plant response rating, Com. groundsel: 0
Common groundsel; Rate 64 g/ha
  Plant response rating, Com. groundsel: 0
Common groundsel; Rate 125 g/ha
  Plant response rating, Com. groundsel: 0
dallisgrass; Rate 16 g/ha
  Plant response rating, Dallisgrass: 0
dallisgrass; Rate 32 g/ha
  Plant response rating, Dallisgrass: 0
dallisgrass; Rate 64 g/ha
  Plant response rating, Dallisgrass: 85
dallisgrass; Rate 125 g/ha
  Plant response rating, Dallisgrass: 100
goosegrass; Rate 16 g/ha
  Plant response rating, Goosegrass: 0
goosegrass; Rate 32 g/ha
  Plant response rating, Goosegrass: 0
goosegrass; Rate 64 g/ha
  Plant response rating, Goosegrass: 85
goosegrass; Rate 125 g/ha
  Plant response rating, Goosegrass: 85
guineagrass; Rate 16 g/ha
  Plant response rating, Guineagrass: 0
guineagrass; Rate 32 g/ha
  Plant response rating, Guineagrass: 0
guineagrass; Rate 64 g/ha
  Plant response rating, Guineagrass: 30
guineagrass; Rate 125 g/ha
  Plant response rating, Guineagrass: 65
itchgrass; Rate 16 g/ha
  Plant response rating, Itchgrass: 0
itchgrass; Rate 32 g/ha
  Plant response rating, Itchgrass: 0
itchgrass; Rate 64 g/ha
  Plant response rating, Itchgrass: 0
itchgrass; Rate 125 g/ha
  Plant response rating, Itchgrass: 0
Johnson grass; Rate 16 g/ha
  Plant response rating Johnsongrass: 0
Johnson grass; Rate 32 g/ha
  Plant response rating Johnsongrass: 0
Johnson grass; Rate 64 g/ha
  Plant response rating Johnsongrass: 0
Johnson grass; Rate 125 g/ha
  Plant response rating Johnsongrass: 0
Large crabgrass; Rate 16 g/ha
  Plant response rating Large crabgrass: 0
Large crabgrass; Rate 32 g/ha
  Plant response rating Large crabgrass: 0
Large crabgrass; Rate 64 g/ha
  Plant response rating Large crabgrass: 98
Large crabgrass; Rate 125 g/ha
  Plant response rating Large crabgrass: 100
Pitted morningglory; Rate 16 g/ha
  Plant response rating, P. morninglory: 0
Pitted morningglory; Rate 32 g/ha
  Plant response rating, P. morninglory: 0
Pitted morningglory; Rate 64 g/ha
  Plant response rating, P. morninglory: 0
Pitted morningglory; Rate 125 g/ha
  Plant response rating, P. morninglory: 0
Purple nutsedge; Rate 16 g/ha
  Plant response rating, Purple nutsedge: 0
Purple nutsedge; Rate 32 g/ha
  Plant response rating, Purple nutsedge: 0
Purple nutsedge; Rate 64 g/ha
  Purple nutsedge plant response rating: 0
Purple nutsedge; Rate 125 g/ha
  Purple nutsedge plant response rating: 0
sandbur; Rate 16 g/ha
  Plant response rating, Sandbur: 0
sandbur; Rate 32 g/ha
  Plant response rating, Sandbur: 0
sandbur; Rate 64 g/ha
  Sandbur plant response rating: 0
sandbur; Rate 125 g/ha
  Sandbur plant response rating: 0
Spanishneedles; Rate 16 g/ha
  Plant response rating, Spanishneedles: 0
Spanishneedles; Rate 32 g/ha
  Plant response rating, Spanishneedles: 0
Spanishneedles; Rate 64 g/ha
  Spanishneedles plant response rating: 0
Spanishneedles; Rate 125 g/ha
  Spanishneedles plant response rating: 0
Surinam grass; Rate 16 g/ha
  Plant response rating, Surinam grass: 0
Surinam grass; Rate 32 g/ha
  Plant response rating, Surinam grass: 0
Surinam grass; Rate 64 g/ha
  Surinam grass plant response rating: 0
Surinam grass; Rate 125 g/ha
  Surinam grass plant response rating: 20
Tall mallow; Rate 16 g/ha
  Plant response rating, Tall Mallow: 0
Tall mallow; Rate 32 g/ha
  Plant response rating, Tall Mallow: 0
Tall mallow; Rate 64 g/ha
  Tall Mallow plant response rating: 0
Tall mallow; Rate 125 g/ha
  Tall Mallow plant response rating: 0
Green foxtail; Preemergence; Rate 16 g/ha; 0 to 100 scale, 0 no injury, 100 complete control
  Plant response rating, Green foxtail: 0
Green foxtail; Preemergence; Rate 32 g/ha; 0 to 100 scale, 0 no injury, 100 complete control
  Plant response rating, Green foxtail: 0
Green foxtail; Rate 16 g/ha; Preemergence; 0 to 100 scale, 0 no injury, 100 complete control
  Plant response rating, Green foxtail: 0
Green foxtail; Rate 32 g/ha; Preemergence; 0 to 100 scale, 0 no injury, 100 complete control
  Plant response rating, Green foxtail: 0
Green foxtail; [1]
  Green foxtail plant response rating: 85
  Plant response rating, Green foxtail: 85
Green foxtail; [2]
  Green foxtail plant response rating: 85
  Plant response rating, Green foxtail: 85
